These are literature values, as cited in patent EP0839024B1, “MONENSIN FORMULATIONS” (Elli Lilly & Co.(NZ)Limited, priority 1995, dated 1997).

Each structure is given as a SMILES string.

For series [1] the following is noted: Example 1 of EP 0,139,595: 250 g mycelium containing 10% monensin, 1250 cc propylene glycol, room temperature, 2 hours, ultrasound; cited from earlier work.
For series [2] the following is noted: as indicated in EP 0,139,595 (monensin and its sodium salt) and US Patent 3,715,372 (lasalocid); cited from earlier work.

As to `CC[C@@]1([C@@H]2O[C@@H]([C@H]3O[C@@](O)(CO)[C@H](C)C[C@@H]3C)C[C@@H]2C)CC[C@H]([C@]2(C)CC[C@]3(C[C@H](O)[C@@H](C)[C@@H]([C@@H](C)[C@@H](OC)[C@H](C)C(=O)O)O3)O2)O1` [monensin], the “monensin found in solution in propylene glycol” value in series [1] was 50%. Regarding `CC[C@@H](C(=O)[C@@H](C)[C@@H](O)[C@H](C)CCc1ccc(C)c(O)c1C(=O)O)[C@H]1O[C@](CC)([C@H]2CC[C@](O)(CC)[C@H](C)O2)C[C@@H]1C` [lasalocid], the solubility in water entry in series [2] is recorded as “completely insoluble”.
